Literature values as cited in US8647676B2, “Antimicrobial composition from copepods” (priority 2008, dated 2014).

Conditions: Iwamoto et al. Tetrahedron, 1999 vol. 55 p. 14353

## penostatin
  cytotoxicity (in words): mild cytotoxic
